Assay results as given in ChEMBL document CHEMBL3112512, “Microwave induced three-component synthesis and antimycobacterial activity of benzopyrazolo[3,4-b]quinolindiones” (2014).
Values after ≈ are worked out from the molar mass of the structure shown.

What was measured:
Type in all cases: functional
Mycobacteroides chelonae = test: Antimycobacterial activity against Mycobacterium chelonae MNT1407 clinical isolate by MTT assay
[1] = tested on: Mycobacterium tuberculosis; test: Antimycobacterial activity against streptomycin, isoniazid, rifampicin, ethambutol and pirazynamide-susceptible Mycobacterium tuberculosis H37Rv ATCC 27294 by MTT assay
[2] = tested on: Mycolicibacterium fortuitum; test: Antimycobacterial activity against Mycobacterium fortuitum MNT1073 clinical isolate by MTT assay
[3] = tested on: Mycobacterium scrofulaceum; test: Antimycobacterial activity against Mycobacterium scrofulaceum MNT1193 clinical isolate by MTT assay
[4] = tested on: Mycobacterium intracellulare; test: Antimycobacterial activity against Mycobacterium intracellulare MNT1408 clinical isolate by MTT assay
Mycobacterium szulgai = test: Antimycobacterial activity against Mycobacterium szulgai MNT1100 clinical isolate by MTT assay

SMILES	MIC (Mycobacteroides chelonae) [µg/mL]	MIC [1] [µg/mL]	MIC [2] [µg/mL]	MIC [3] [µg/mL]	MIC [4] [µg/mL]	MIC (Mycobacterium szulgai) [µg/mL]
O=C1C(=O)c2ccccc2C2=C1C(c1ccccc1)c1c(-c3ccc(Cl)cc3)n[nH]c1N2 (stereo not given)	> 32	> 32	> 32	> 32	> 32	> 32
COc1ccc(C2C3=C(Nc4[nH]nc(-c5ccccc5)c42)c2ccccc2C(=O)C3=O)cc1 (stereo not given)	> 32	> 32	> 32	> 32	> 32	> 32
Cc1nn(-c2ccccc2)c2nc3c(c(-c4ccccc4)c12)C(=O)C(=O)c1ccccc1-3	> 32	≤ 2	> 32	> 32	> 32	> 32
COc1cc(-c2c3c(nc4c2c(C)nn4-c2ccccc2)-c2ccccc2C(=O)C3=O)cc(OC)c1OC	> 32	> 32	> 32	> 32	> 32	> 32
COc1ccc(-c2c3c(nc4[nH]nc(-c5ccc(Cl)cc5)c24)-c2ccccc2C(=O)C3=O)cc1	> 32	> 32	> 32	> 32	> 32	> 32
Cc1ccc(-c2n[nH]c3c2C(c2ccccc2)C2=C(N3)c3ccccc3C(=O)C2=O)cc1 (stereo not given)	> 32	16 (≈ 38.3 µM)	> 32	> 32	> 32	> 32
Cc1ccc(-c2n[nH]c3nc4c(c(-c5ccc([N+](=O)[O-])cc5)c23)C(=O)C(=O)c2ccccc2-4)cc1	> 32	> 32	> 32	> 32	> 32	> 32
O=C1C(=O)c2ccccc2C2=C1C(c1ccccc1)c1c(-c3ccccc3)n[nH]c1N2 (stereo not given)	> 32	> 32	> 32	> 32	> 32	> 32
Cc1nn(-c2ccccc2)c2nc3c(c(-c4ccc(F)cc4)c12)C(=O)C(=O)c1ccccc1-3	> 32	4 (≈ 9.23 µM)	> 32	> 32	> 32	> 32
O=C1C(=O)c2ccccc2C2=C1C(c1ccccc1)c1c(-c3ccc([N+](=O)[O-])cc3)n[nH]c1N2 (stereo not given)	> 32	32 (≈ 71.4 µM)	> 32	> 32	> 32	> 32
NNC(=O)c1ccncc1 [ISONIAZID]	> 0.5	0.25 (≈ 1.82 µM)	> 0.5	> 0.5	> 0.5	> 0.5
CO[C@H]1/C=C/O[C@@]2(C)Oc3c(C)c(O)c4c(O)c(c(/C=N/N5CCN(C)CC5)c(O)c4c3C2=O)NC(=O)/C(C)=C\C=C\[C@H](C)[C@H](O)[C@@H](C)[C@@H](O)[C@@H](C)[C@H](OC(C)=O)[C@@H]1C [RIFAMPIN]	0.125 (≈ 0.152 µM)	0.125 (≈ 0.152 µM)	> 0.5	> 0.5	> 0.5	> 0.5
Cc1nn(-c2ccccc2)c2nc3c(c(-c4ccc(Cl)cc4)c12)C(=O)C(=O)c1ccccc1-3	> 32	> 32	> 32	> 32	> 32	> 32
Cc1ccc(-c2c3c(nc4c2c(C)nn4-c2ccccc2)-c2ccccc2C(=O)C3=O)cc1	> 32	4 (≈ 9.31 µM)	> 32	> 32	> 32	> 32
Cc1ccc(C2C3=C(Nc4[nH]nc(-c5ccccc5)c42)c2ccccc2C(=O)C3=O)cc1 (stereo not given)	> 32	> 32	> 32	> 32	> 32	> 32
